Reference: US20250352555A1, “METHOD OF INCREASING IMMUNE CELL ACTIVATION AND/OR TREATING CANCER USING DIBENZOXAZEPINONES” (VASCULAR THERAPEUTICS PTY LTD, priority 2022, published 2025)

What was measured:
A375 cells [1] = assay: Cell morphology study, A375; assay type: cell-based, human; conditions: 1 μM, 24 h
Protocol: (§1) Cell morphology studies. Cells were grown in medium containing 10% FBS in 4-well chamber slides. The following day the cells were incubated in medium containing 10% FBS and vehicle, BT2 or SCH772984 at 1 μM for 24 h, then fixed with 4% paraformaldehyde solution for 15 min. After washing briefly in PBS the cells were stained with hemotoxylin and eosin. The slides were scanned using an Aperio ScanScope XT slide scanner (Leica Biosystems, Mt Waverley, Vic, Australia) and images were captured using ImageScope software (Leica Biosystems).
(§2) The morphology of A375 and MeWo cells exposed to 1 μM of BT2 or SCH772984 for 24 h was also assessed.

MeWo cells = assay: Cell morphology study, MeWo; assay type: cell-based, human; conditions: 1 μM, 24 h
Protocol: as §1, §2

A375 cells [2] = assay: Apoptosis, flow cytometry with Annexin V-FITC, A375; assay type: cell-based, human; conditions: 1 μM, 24 h
Protocol: Flow cytometry with Annexin V-FITC. Cells were seeded into 6 well plates in normal culture medium containing 10% FBS. After culturing overnight, the cells were incubated in complete medium containing vehicle, BT2 or SCH772984 at 1 μM and left for 24 h. The culture medium was removed and the cells were washed with PBS. Accutase (Stem Cell Technologies, cat. no. 07920) was used to detach the cells. The cells were then washed and centrifuged at 300 g for 5 min and resuspended at 1×10^6 cells/ml in 500 μl of 1× binding buffer (Annexin V-FITC Apoptosis Staining/Detection Kit, Abcam, cat. no. ab14085). The cells were transferred to 12×75 mm tubes and annexin V-FITC/propidium iodide (PI) was added and incubated for 5 min at 22° C. protected from light. Stained cell suspensions were analyzed by flow cytometry using a BD LSRFortessa X20.
as §2

p38 = assay: Western blotting time course for p38 phosphorylation, Jurkat T cells; assay type: cell-based, human; conditions: Western blot time course
Protocol: Western blotting. Cells were treated with compounds and times indicated and total cell lysates were prepared in RIPA buffer. Lysates (10 μg) were resolved by SDS-PAGE and transferred to Immobilon-P polyvinylidene difluoride (PVDF) membranes (Millipore, USA).
Membranes were blocked with 5% skim milk and incubated with rabbit monoclonal anti-c-Jun (Abcam, cat. no. ab32137; mouse, rat and human reactive) antibody, rabbit monoclonal anti-PD-1 (Abcam, cat. no. ab214421) antibody, mouse monoclonal β-actin antibody (Sigma-Aldrich, cat. no. A5316), anti-phospho-SAPK/JNK (Thr^183/Tyr^185) (98F2) (CST, cat. no. 4671) antibody, anti-phospho-p44/42 MAPK (ERK1/2) (Thr^202/Tyr^204) (D13.14.4E) (CST, cat. no. 4370) antibody, anti-phospho-p38 MAPK (Thr^180/Tyr^182) (D3F9) (CST, cat. no. 4511) antibody, anti-SAPK/JNK antibody (CST, cat. no. 9252), anti-p44/42 MAPK (ERK1/2) (137F5) antibody (CST, cat. no. 4695), anti-p38 MAPK antibody (CST, cat. no. 9212), anti-DUSP8 antibody (Abcam, cat. no. ab198175) or anti-c-MAF (BLR045F) antibody (Abcam, cat. no. ab243901). […] Chemiluminescence was detected using the Western Lightning Chemiluminescence system (Thermo Scientific, USA) and ImageQuant™ LAS 4000 biomolecular imager (GE Healthcare Life Sciences, USA). Band intensity in images generated with the LAS 4000 was quantified using NIH Image J. […]

CD28 = biological target: T1, CD28 (Macaca fascicularis, UniProt Q0PDN3); assay: Surface plasmon resonance (SPR), Biacore T200; assay type: binding; conditions: BT2 up to 20 μM (8-point dilution series), 12° C., 20 mM HEPES, 150 mM NaCl, 5% DMSO, pH 7.5
T1 construct: purchased Sino Biological
T1 sequence (Q0PDN3 19-152): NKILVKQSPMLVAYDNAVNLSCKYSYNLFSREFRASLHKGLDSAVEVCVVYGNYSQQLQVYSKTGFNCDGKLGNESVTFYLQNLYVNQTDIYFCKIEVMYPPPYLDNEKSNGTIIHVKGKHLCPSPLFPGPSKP
Protocol: Surface plasmon resonance (SPR). Using a Biacore T200 (Cytiva), CD28 (Sino Biological) was immobilised onto a Series S sensor Chip CM5 (GE) by amine coupling to a level of ˜3000 RU on flow cells 2 and 4 at 25° C., with a flowrate of 10 μl/min. 0.2 M EDC+0.05 M NHS was injected for 420 s followed by CD28 (37.5 μg/ml in 10 mM acetate pH 5) for 450 s with the flowrate reduced to 2 μl/min. Unreacted NHS was blocked with an injection of 1 M ethanolamine-HCl pH 8.5 for 420 s. Flow cells 1 and 3 were used as the reference cells, activated and blocked as described above. Immobilisation running buffer was 20 mM HEPES, 150 mM NaCl, pH 7.5. The SPR run was performed at 12° C. with 20 mM HEPES, 150 mM NaCl, 5% DMSO, pH 7.5 as the running buffer. […] The concentration was confirmed using ^1H 1D NMR. […] Samples were injected for 60 s with a dissociation time of 60 s at a flow rate of 40 μl/min. Solvent correction was performed to correct for excluded volume effects. The integrity of the coupled CD28 was validated by injection of the known binding partner CD80 (Sino Biological) (Waite et al., 2020) (5 point dilution series with 2 μM top concentration).
In T cells, the c-jun promoter is activated by anti-CD28 engagement. CD28, a homodimeric cell surface glycoprotein, is a co-stimulatory signal required for T cell activation. The inventors investigated whether BT2 might interact with CD28. […]

binding to CD28 (SPR sensorgram) (CD28): bound to CD28 in a dose-dependent manner
Structure (SMILES): CCOC(=O)Nc1ccc2c(c1)C(=O)N(CC)c1ccccc1O2 [BT2, (10-ethyl-11-oxo-10,11-dihydro-dibenzo[b,f][1,4]oxazepin-2-yl)-carbamic acid ethyl ester]
cell morphology (A375 cells [1]): loss of spindle morphology and cell rounding | cell morphology (MeWo cells): loss of spindle morphology and cell rounding | apoptosis (Annexin V-FITC+ PI−) (A375 cells [2]): increased apoptosis | levels of p38 phosphorylation (p38): no effect
